This is an account of results in US8759354B2, “Pharmaceutical composition comprising pyrazine derivative, and method of using pyrazine derivative in combination” (priority 2007, dated 2014).

Read-outs that look alike come from different tables or passages of the source.

Assay [1] relates to influenza virus (PR/8 (H1N1)). In words: microbe, parasite or virus in culture. The class given is cell-based. The settings on record: unidentified influenza virus, MDCK; for inhibition at 0.0625 µg/mL: read-out: Inhibition rate, single use, 0.0625 μg/mL; for inhibition at 0.125 µg/mL: read-out: Inhibition rate, single use, 0.125 μg/mL; for inhibition at 0.25 µg/mL: read-out: Inhibition rate, single use, 0.25 μg/mL; for inhibition at 0.5 µg/mL: read-out: Inhibition rate, single use, 0.5 μg/mL; for inhibition at 1 µg/mL: read-out: Inhibition rate, single use, 1 μg/mL; for inhibition at 2 µg/mL: read-out: Inhibition rate, single use, 2 μg/mL; for inhibition at 0.00625 µg/mL: read-out: Inhibition rate, single use, 0.00625 μg/mL; for inhibition at 0.0125 µg/mL: read-out: Inhibition rate, single use, 0.0125 μg/mL; for inhibition at 0.025 µg/mL: read-out: Inhibition rate, single use, 0.025 μg/mL; for inhibition at 0.05 µg/mL: read-out: Inhibition rate, single use, 0.05 μg/mL; for inhibition at 0.1 µg/mL: read-out: Inhibition rate, single use, 0.1 μg/mL; for inhibition at 0.2 µg/mL: read-out: Inhibition rate, single use, 0.2 μg/mL; for inhibition at 0.4 µg/mL: read-out: Inhibition rate, single use, 0.4 μg/mL.

For assay [2], the system named is Victoria/3/75 (H3N2) influenza virus. In words: microbe, parasite or virus in culture. The class given is cell-based. The settings on record: Influenza A virus, H3N2, MDCK, single use, read-out: Inhibition rate; for inhibition at 0.125 µg/mL: 0.125 μg/mL; for inhibition at 0.25 µg/mL: 0.25 μg/mL; for inhibition at 0.5 µg/mL: 0.5 μg/mL; for inhibition at 1 µg/mL: 1 μg/mL; for inhibition at 2 µg/mL: 2 μg/mL; for inhibition at 4 µg/mL: 4 μg/mL; for inhibition at 0.0125 µg/mL: 0.0125 μg/mL; for inhibition at 0.025 µg/mL: 0.025 μg/mL; for inhibition at 0.05 µg/mL: 0.05 μg/mL; for inhibition at 0.1 µg/mL: 0.1 μg/mL; for inhibition at 0.2 µg/mL: 0.2 μg/mL.

As to `NC(=O)c1nc(F)cnc1O` [T-705, 6-Fluoro-3-hydroxy-2-pyrazinecarboxamide], the inhibition at 0.0156 µg/mL in assay [1] (read-out: Inhibition rate, single use, 0.0156 μg/mL, Test Example 1) is 1.9%. For the same compound, the inhibition at 0.0313 µg/mL in assay [1] (read-out: Inhibition rate, single use, 0.0313 μg/mL, Test Example 1) is 6.7%. Also, in assay [1] (Test Example 1), the inhibition at 0.0625 µg/mL was found to be 9.7%, the inhibition at 0.125 µg/mL worked out at 27%, the inhibition at 0.25 µg/mL is 43% and the inhibition at 0.5 µg/mL was 60%. In addition, in assay [1] (Test Example 1), the inhibition at 1 µg/mL turned out to be 85% and the inhibition at 2 µg/mL worked out at 93%. Further, in assay [1] (Test Example 2), the inhibition at 0.0625 µg/mL is 6.2%, the inhibition at 0.125 µg/mL was found to be 17%, the inhibition at 0.25 µg/mL came to 34% and the inhibition at 0.5 µg/mL was 64%. For the same compound, in assay [1] (Test Example 2), the inhibition at 1 µg/mL was 77% and the inhibition at 2 µg/mL was 89%. The inhibition at 4 µg/mL in assay [1] (read-out: Inhibition rate, single use, 4 μg/mL, Test Example 1) was 100%. In addition, in assay [2] (Test Example 3), the inhibition at 0.125 µg/mL amounted to 2.6%, the inhibition at 0.25 µg/mL came out at 9%, the inhibition at 0.5 µg/mL worked out at 42% and the inhibition at 1 µg/mL came to 76%. In assay [2] (Test Example 3), the inhibition at 2 µg/mL worked out at 86% and the inhibition at 4 µg/mL came to 94%. Further, in assay [2] (Test Example 4), the inhibition at 0.125 µg/mL came out at 2.6%, the inhibition at 0.25 µg/mL came out at 9.2%, the inhibition at 0.5 µg/mL turned out to be 42% and the inhibition at 1 µg/mL worked out at 76%. In assay [2] (Test Example 4), the inhibition at 2 µg/mL was 86% and the inhibition at 4 µg/mL was 94%.

For `CC(=O)N[C@H]1[C@H]([C@H](O)[C@H](O)CO)OC(C(=O)O)=C[C@@H]1N=C(N)N` [Zanamivir, zanamivir], the inhibition at 0.0031 µg/mL in assay [1] (read-out: Inhibition rate, single use, 0.0031 μg/mL, Test Example 2) was determined as 6.2%. Moreover, in assay [1] (Test Example 2), the inhibition at 0.00625 µg/mL is 12%, the inhibition at 0.0125 µg/mL was determined as 23%, the inhibition at 0.025 µg/mL came out at 28% and the inhibition at 0.05 µg/mL stood at 49%. In assay [1] (Test Example 2), the inhibition at 0.1 µg/mL stood at 60%, the inhibition at 0.2 µg/mL turned out to be 67% and the inhibition at 0.4 µg/mL was found to be 75%. Moreover, in assay [2] (Test Example 4), the inhibition at 0.0125 µg/mL stood at 7.4%, the inhibition at 0.025 µg/mL is 14%, the inhibition at 0.05 µg/mL is 27% and the inhibition at 0.1 µg/mL is 40%. Moreover, the inhibition at 0.2 µg/mL in assay [2] (Test Example 4) was determined as 60%. For the same compound, the inhibition at 0.4 µg/mL in assay [2] (0.4 μg/mL, Test Example 4) came to 71%. Also, in assay [2] (0.8 μg/mL, Test Example 4), the inhibition at 0.8 µg/mL turned out to be 81%.

With `CCC(CC)O[C@@H]1C=C(C(=O)O)C[C@H](N)[C@H]1NC(C)=O` [GS-4071], the inhibition at 0.00313 µg/mL in assay [1] (read-out: Inhibition rate, single use, 0.00313 μg/mL, Test Example 1) came out at 1.9%. Further, in assay [1] (Test Example 1), the inhibition at 0.00625 µg/mL was 11%, the inhibition at 0.0125 µg/mL turned out to be 14%, the inhibition at 0.025 µg/mL stood at 25% and the inhibition at 0.05 µg/mL is 29%. Also, in assay [1] (Test Example 1), the inhibition at 0.1 µg/mL turned out to be 42%, the inhibition at 0.2 µg/mL stood at 61% and the inhibition at 0.4 µg/mL was 73%. Moreover, the inhibition at 0.8 µg/mL in assay [1] (read-out: Inhibition rate, single use, 0.8 μg/mL, Test Example 1) is 84%. In assay [2] (0.003125 μg/mL, Test Example 3), the inhibition at 0.003125 µg/mL was determined as 8.6%. The inhibition at 0.00625 µg/mL in assay [2] (0.00625 μg/mL, Test Example 3) worked out at 14%. In addition, in assay [2] (Test Example 3), the inhibition at 0.0125 µg/mL is 44%, the inhibition at 0.025 µg/mL was 54%, the inhibition at 0.05 µg/mL amounted to 68% and the inhibition at 0.1 µg/mL came out at 80%. The inhibition at 0.2 µg/mL in assay [2] (Test Example 3) is 88%.
